Ends that are not written are not given here. PEG = not defined here
Key:
Format in all cases: cell-based
[1] = system: human breast cancer cells (MDA-MB-453); test: scratch assay, migration of MDA-MB-453 cells; settings: MDA-MB-453, 10 μM, 48 hours; control group 32.42 ± 2.04
Method: (§1) In the scratch assay, the cell migration rate was negatively correlated with the inhibitory effect of the drug component on tumor cell migration ability. The cell migration inhibition experiment was described as follows: tumor cells were cultured in vitro, cells in logarithmic growth phase were collected and seeded evenly in a 24-well plate at a density of 1-2×10^5 cells/well; the cells were cultured in a cell incubator until a monolayer was formed; a scratch tool was used to make a “-” (straight) scratch on the monolayer of cells; the cells were washed 1-3 times with PBS, and a medium (with 2% fetal bovine serum) containing specific test components was added to the culture. Experimental grouping: PBS control group; polypeptide or derivative thereof treatment group (N1-N54), 10 μM. Three independent parallel wells were set up in each group, and the cells were cultured continuously in a cell incubator for 48 hours. […] At least 3 representative images for each well were taken. ImageJ software was used to count the migration distance of the cells, and the cell migration rate was calculated as: cell migration rate (%)=(width of original scratch−width of current scratch)/width of original scratch×100.
This example was a scratch assay to evaluate the inhibitory effect of the polypeptide or derivative thereof (N1-N54) on the migration ability of human breast cancer cells (MDA-MB-453). The experimental method was as described in Example 2.

[2] = system: human pancreatic cancer cells (PANC-1); test: transwell migration assay, PANC-1 cells; settings: PANC-1 transwell migration, 10 μM, 24 hours; control group 360 ± 60
Method: (§2) The Transwell chamber system was used in the transwell cell migration experiment. The chamber has an upper layer and a lower layer, which are separated by an artificial semipermeable membrane in the middle. Cells that have migrated through the semi-permeable membrane will attach to the lower surface of the semi-permeable membrane. The migration ability is evaluated by counting the number of cells on the lower surface of the semi-permeable membrane. The number of cells that have migrated is negatively correlated with the inhibitory effect of the drug on the migration ability of the tumor cells. Transwell migration assay was performed as follows: tumor cells were cultured in vitro, cells in logarithmic growth phase were collected, and cell suspension was prepared with fresh serum-free medium at a density of 2-3×10^5 cells/mL. Cells were inoculated, 100 μL/well cell suspension (serum-free medium) in the upper chamber and 600 μL/well complete culture medium in the lower chamber. After incubated in 37° C., 5% CO2 incubator for 4-5 hours, serum-free medium (100 μL/well) was added to the control group, and serum-free medium containing polypeptide or derivative thereof (N1-N54) was added to the upper chamber of the treatment group (100 μL/well), the final concentration of the peptide or derivative thereof in the upper chamber was 10 μM. The cells were incubated continuously for 24 hours, and then fixed with methanol and stained with crystal violet. Images were taken under a microscope and the number of migrated cells was counted with ImageJ.
This example was a transwell cell migration experiment to evaluate the inhibitory effect of the polypeptide or derivative thereof (N1-N54) on the migration ability of human pancreatic cancer cells (PANC-1). The experimental method was as described in Example 3.

[3] = system: human liver adenocarcinoma cells (SK-HEP-1); test: transwell migration assay, SK-HEP-1 cells; settings: SK-HEP-1 transwell migration, 10 μM, 24 hours; control group 1 782 ± 108, control group 2 768 ± 86
Method: as §2
This example was a transwell cell migration experiment to evaluate the inhibitory effect of the polypeptide or derivative thereof (N1-N54) on the migration ability of human liver adenocarcinoma cells (SK-HEP-1). The experimental method was as described in Example 3.

[4] = system: human liver adenocarcinoma cells (SK-HEP-1); test: transwell invasion assay, SK-HEP-1 cells; settings: SK-HEP-1 transwell invasion, 10 μM, 24 hours; control group 767 ± 91
Excerpt: (§3) The Transwell chamber system was used in the transwell cell invasion experiment. The chamber has an upper layer and a lower layer, which are separated by an artificial semipermeable membrane in the middle. The upper surface of the semipermeable membrane is coated with a layer of artificial matrigel to simulate extracellular matrix. Cells that have invaded through the matrigel and semi-permeable membrane will attach to the lower surface of the semi-permeable membrane. The invasion ability is evaluated by counting the number of cells on the lower surface of the semi-permeable membrane. The number of cells that have invaded is negatively correlated with the inhibitory effect of the drug on the invasion ability of the tumor cells. Transwell invasion assay was performed as follows: tumor cells were cultured in vitro, cells in logarithmic growth phase were collected, and cell suspension was prepared with fresh serum-free medium at a density of 2-3×10^5 cells/mL. Cells were inoculated, 100 μL/well cell suspension (serum-free medium) in the upper chamber and 600 μL/well complete culture medium in the lower chamber. After incubated in 37° C., 5% CO2 incubator for 4-5 hours, serum-free medium (100 μL/well) was added to the control group, and serum-free medium containing polypeptide or derivative thereof (N1-N54) was added to the upper chamber of the treatment group (100 μL/well), the final concentration of the peptide or derivative thereof in the upper chamber was 10 μM. The cells were incubated continuously for 24 hours, and then fixed with methanol and stained with crystal violet. Images were taken under a microscope and the number of invaded cells was counted with ImageJ.
This example was a transwell cell invasion experiment to evaluate the inhibitory effect of the polypeptide or derivative thereof (N1-N54) on the invasion ability of human liver adenocarcinoma cells (SK-HEP-1). The experimental method was as described in Example 4.

[5] = system: human thyroid cancer cells (FRO); test: scratch assay, migration of FRO cells; settings: 10 μM, 48 hours, control group 60.34 ± 8.32
Method: as §1
This example was a scratch assay to evaluate the inhibitory effect of the polypeptide or derivative thereof (N1-N54) on the migration ability of human thyroid cancer cells (FRO). The experimental method was as described in Example 2.

[6] = system: human pancreatic cancer cells (PANC-1); test: scratch assay, migration of PANC-1 cells; settings: PANC-1, 10 μM, 48 hours; control group 66.65 ± 3.37
Method: as §1
This example was a scratch assay to evaluate the inhibitory effect of the polypeptide or derivative thereof (N1-N54) on the migration ability of human pancreatic cancer cells (PANC-1). The experimental method was as described in Example 2.

[7] = system: human pancreatic cancer cells (PANC-1); test: transwell invasion assay, PANC-1 cells; settings: PANC-1 transwell invasion, 10 μM, 24 hours; control group 727 ± 68
Excerpt: as §3
This example was the transwell cell invasion experiment to evaluate the inhibitory effect of the polypeptide or derivative thereof (N1-N54) on the invasion ability of human pancreatic cancer cells (PANC-1). The experimental method was as described in Example 4.

[8] = system: human oral epidermoid carcinoma KB cells; test: scratch assay, migration of KB cells; settings: 10 μM, 48 hours, control group 54.03 ± 4.21
Method: as §1
This example was a scratch assay to evaluate the inhibitory effect of the polypeptide or derivative thereof (N1-N54) on the migration ability of human oral epidermoid carcinoma cells (KB). The experimental method was as described in Example 2.

| Substance | Migration rate (%) (mean ± SD, P) [1] | Number of cells (mean ± SD, P), migrated cells [2] | Number of cells (mean ± SD, P), migrated cells [3] | Number of cells (mean ± SD, P), invaded cells [4] | Migration rate (%) (mean ± SD, P) [5] | Migration rate (%) (mean ± SD, P) [6] | Number of cells (mean ± SD, P), invaded cells [7] | Migration rate (%) (mean ± SD, P) [8] |
| --- | --- | --- | --- | --- | --- | --- | --- | --- |
| N26: SEQ ID NO: 1 with substitution A15R, addition of one amino acid at the amino terminal and one at the carboxyl terminal (FYRVRFLAKENVTQDREDNC) | 6.19 ± 1.42,*** % | 119 ± 17,*** | 68 ± 19,**** | 371 ± 27,*** | 11.21 ± 4.01,*** % | 26.65 ± 6.37,*** % | 231 ± 18,**** | 23.71 ± 4.86,* % |
| N54: SEQ ID NO: 1 with A7R, addition of two amino acids and PEG modification at the carboxyl terminal (YRVRFLRKENVTQDAEDNTC-{PEG}; reading uncertain) | 3.19 ± 1.08,*** % | 128 ± 19,*** | 345 ± 3,**** | 151 ± 28,**** | 8.26 ± 3.47% | 16.62 ± 5.73,*** % | 231 ± 26,**** | 6.91 ± 3.44,*** % |
| N16: SEQ ID NO: 1 with substitution A7R and addition of one amino acid at the carboxyl terminus (YRVRFLRKENVTQDAEDNC) | 8.11 ± 1.71,*** % | 230 ± 28,* | 74 ± 18,**** | 398 ± 43,*** | 11.72 ± 4.41,*** % | 19.15 ± 4.97,*** % | 128 ± 25,**** | 18.28 ± 3.45,** % |
| N21: SEQ ID NO: 1 with deletion of positions 1-5 and 15-18 and addition of one amino acid at the amino terminal (SLAKENVTQD) | 13.59 ± 2.07,** % | 216 ± 12,*** | 34 ± 7,**** | 356 ± 60,*** | 30.45 ± 4.94,* % | 10.54 ± 9.03,*** % | 269 ± 28,**** | 9.87 ± 2.84,*** % |
| N14: SEQ ID NO: 1 with deletion of positions 1-5 and addition of one amino acid at the carboxyl terminal (LAKENVTQDAEDNC) | 7.58 ± 2.34,*** % | 263 ± 16,* | 61 ± 14,**** | 329 ± 54,*** | 14.09 ± 2.47,*** % | 26.63 ± 6.67,*** % | 157 ± 37,**** | 11.22 ± 2.66,*** % |
| N12: SEQ ID NO: 1 with deletion of position 18 and positions 1-2 (VRFLAKENVTQDAED) | 6.32 ± 1.78,*** % | 246 ± 14,* | 405 ± 49,** | 308 ± 42,*** | 7.67 ± 3.29,*** % | 23.26 ± 6.90,** % | 180 ± 17,**** | 11.53 ± 2.78,*** % |
| N13: SEQ ID NO: 1 with deletion of positions 15-18 and positions 1-5 (LAKENVTQD) | 9.28 ± 2.43,*** % | 255 ± 24,* | 25 ± 12,**** | 258 ± 32,**** | 11.99 ± 2.39,*** % | 18.28 ± 8.38,*** % | 161 ± 19,**** | 14.53 ± 3.53,** % |
| N30: SEQ ID NO: 1 with deletion of positions 1-5 and 15-18 and PEG modification at the carboxyl terminal (LAKENVTQD-{PEG}; reading uncertain) | 15.77 ± 2.33,*** % | 243 ± 33,* | 156 ± 22,**** | 85 ± 20,**** | 5.16 ± 1.67,*** % | 16.60 ± 5.85,*** % | 237 ± 15,**** | 8.75 ± 3.35,*** % |
| N52: SEQ ID NO: 1 with N18R, addition of two amino acids and PEG modification at the carboxyl terminal (YRVRFLAKENVTQDAEDRCT-{PEG}; reading uncertain) | 13.87 ± 3.13,*** % | 153 ± 16,*** | 318 ± 37,*** | 132 ± 29,**** | 10.86 ± 3.90,*** % | 23.11 ± 4.27,*** % | 237 ± 27,**** | 9.57 ± 1.61,*** % |

From patent US20220280594A1, “APPLICATION OF POLYPEPTIDE OR DERIVATIVE THEREOF” (CHENGDU HUITAI BIOMEDICINE CO., LTD., priority 2019, published 2022)
